The source of these data is BindingDB's records for doi:10.1111/cbdd.12529 (Birla Institute of Technology, 2015).

Assay [1] deals with T1, DNA gyrase subunit B (Staphylococcus aureus, UniProt P0A0K8). The experiment in a line: GyraseB Assay. To be noted: pH 7.5. Here is the method: Initially, equimolar quantities of about 0.5µM each of E. coli gyraseA and S. aureus gyraseB were incubated for a period of 45 min with salmon sperm DNA (Sigma) in 50mM Tris (pH 7.5), 75mM ammonium acetate buffer for the reconstitution of the hybrid topoisomerases at 4 OC. Later the assay was performed in a 96-well microtiter plate as mentioned earlier (7). […] The reaction was allowed to proceed for 60 min and was quenched by addition of 20uL of malachite green reagent (POMG-25H, Bioassay systems, USA) subsequently absorbance was read at 650nm after 20 mi

For assay [2], the target named is T1, DNA gyrase subunit B. In words: Supercoiling Assay. To be noted: pH 7.6; 25 °C. Here is the method:
Supercoiling assay was performed using the commercially available kit (DNA gyrase supercoiling assay kit: SAS4001) from Inspiralis Pvt.limited, Norwich, UK. The assay was performed in 1.5 mL eppendorf tubes at room temperature. […] KOH (pH 7.6), 10 mM magnesium acetate, 10 mM DTT, 2 mM ATP, 500 mM potassium glutamate, 0.05 mg/mL albumin (BSA). While the standard compound novobiocin was the positive control, 4% DMSO was considered as negative control. Subsequently, each reaction was stopped by the addition of 30 µL of Stop dye [40% sucrose, 100 mM Tris-HCl (pH 7.5), 1 mM EDTA and 0.5 mg/mL bromophenol blue] (8), briefly centrifuged for 45 sec and was run in 1% agarose gel in 1X TAE buffer (40mM Tris acetate, 2mM EDTA).

pIC50: −log10 of the molar value.

T1 sequence (P0A0K8 whole entry): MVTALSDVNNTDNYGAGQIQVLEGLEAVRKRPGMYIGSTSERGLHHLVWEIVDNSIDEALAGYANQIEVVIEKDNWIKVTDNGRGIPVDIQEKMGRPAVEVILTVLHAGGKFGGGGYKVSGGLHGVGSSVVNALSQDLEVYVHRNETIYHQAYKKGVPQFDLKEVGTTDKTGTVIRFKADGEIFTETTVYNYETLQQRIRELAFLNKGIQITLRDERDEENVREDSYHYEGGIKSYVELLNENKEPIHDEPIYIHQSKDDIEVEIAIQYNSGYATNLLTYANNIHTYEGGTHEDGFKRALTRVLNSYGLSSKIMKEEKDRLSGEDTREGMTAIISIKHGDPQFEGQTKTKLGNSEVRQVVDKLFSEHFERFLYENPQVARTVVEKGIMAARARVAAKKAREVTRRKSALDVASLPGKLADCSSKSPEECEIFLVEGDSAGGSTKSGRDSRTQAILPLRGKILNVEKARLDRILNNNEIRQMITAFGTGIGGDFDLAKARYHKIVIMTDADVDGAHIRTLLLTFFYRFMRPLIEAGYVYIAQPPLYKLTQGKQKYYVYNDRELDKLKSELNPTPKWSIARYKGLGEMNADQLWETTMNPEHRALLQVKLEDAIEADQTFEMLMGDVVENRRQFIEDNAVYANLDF

Turning to `Cc1ccc(C(=O)Nc2ccc(NC(=O)CCC(=O)O)cc2)o1` [4-(4-(5-methylfuran-2-carboxamido)phenylamino)-4-oxobutanoate (14)], the pIC50 against DNA gyrase subunit B [1] is 4.99; on DNA gyrase subunit B [2], 5.21. In the case of `NNC(=O)CCC(=O)Nc1ccc(NC(=O)c2ccc([N+](=O)[O-])s2)cc1` [N-(4-(4-Hydrazinyl-4-oxobutanamido)phenyl)-5-nitrothiophene-2-carboxamide (26)], the pIC50 at DNA gyrase subunit B [1] was 4.58; against DNA gyrase subunit B [2] it was 4.71. Take `NNC(=O)CCC(=O)Nc1ccc(NC(=O)C2CCCO2)cc1` (stereo not drawn) [N-(4-(4-Hydrazinyl-4-oxobutanamido)phenyl)tetrahydrofuran-2-carboxamide (28)]: the pIC50 was 4.39 against DNA gyrase subunit B [1] and 4.64 on DNA gyrase subunit B [2]. As to `Cc1ccc(C(=O)Nc2ccc(NC(=O)CCC(=O)NN)cc2)o1` [N-(4-(4-Hydrazinyl-4-oxobutanamido)phenyl)-5-methylfuran-2-carboxamide (22)], the pIC50 was 5.27 against DNA gyrase subunit B [1] and 5.55 at DNA gyrase subunit B [2]. Turning to `NNC(=O)CCC(=O)Nc1ccc(NC(=O)c2cccs2)cc1` [N-(4-(4-Hydrazinyl-4-oxobutanamido)phenyl)thiophene-2-carboxamide (24)], the values for the pIC50 at DNA gyrase subunit B [1] and against DNA gyrase subunit B [2] were 4.49 and 4.55, respectively. As to `Cc1ccc(C(=O)Nc2ccc(NC(=O)CCC(=O)O)cc2)s1` [4-(4-(5-methylthiophene-2-carboxamido)phenylamino)-4-oxobutanoate (17)], the pIC50 at DNA gyrase subunit B [1] is 4.61; against DNA gyrase subunit B [2] it was 4.90. As for `O=C(O)CCC(=O)Nc1ccc(NC(=O)c2cccs2)cc1` [4-oxo-4-((4-(thiophene-2-carboxamido)phenyl)amino)butanoate (16)], the pIC50 against DNA gyrase subunit B [1] was 4.66; on DNA gyrase subunit B [2], 4.90. On the same counts, the results for `NNC(=O)CCC(=O)Nc1ccc(NC(=O)c2ccc[nH]2)cc1` [N-(4-(4-Hydrazinyl-4-oxobutanamido)phenyl)-1H-pyrrole-2-carboxamide (27)] are 4.26 and 4.37. Turning to `O=C(O)CCC(=O)Nc1ccc(NC(=O)c2ccc[nH]2)cc1` [4-(4-(1H-pyrrole-2-carboxamido)phenylamino)-4-oxobutanoate (19)], the pIC50 is 4.37 on DNA gyrase subunit B [1] and 4.86 against DNA gyrase subunit B [2].

As to `NNC(=O)CCC(=O)Nc1ccc(NC(=O)c2ccc([N+](=O)[O-])o2)cc1` [N-(4-(4-Hydrazinyl-4-oxobutanamido)phenyl)-5-nitrofuran-2-carboxamide (23)], the figures for the pIC50 against DNA gyrase subunit B [1] and at DNA gyrase subunit B [2] were 4.45 and 4.60, respectively. For the compound `O=C(O)CCC(=O)Nc1ccc(NC(=O)c2ccc([N+](=O)[O-])s2)cc1` [4-(4-(5-nitrothiophene-2-carboxamido)phenylamino)-4-oxobutanoate (18)], the figures for the pIC50 against DNA gyrase subunit B [1] and against DNA gyrase subunit B [2] were 4.53 and 4.57, respectively.

On to `Cc1ccc(C(=O)Nc2ccc(NC(=O)CCC(=O)NN)cc2)s1` [N-(4-(4-Hydrazinyl-4-oxobutanamido)phenyl)-5-methylthiophene-2-carboxamide (25)], for which the pIC50 against DNA gyrase subunit B [1] was 5.01; against DNA gyrase subunit B [2], 5.21. On to `NNC(=O)CCC(=O)Nc1ccc(NC(=O)c2ccco2)cc1` [N-(4-(4-Hydrazinyl-4-oxobutanamido)phenyl)furan-2-carboxamide (21)], for which the pIC50 was 4.40 on DNA gyrase subunit B [1] and 4.62 on DNA gyrase subunit B [2]. The corresponding values for `O=C(O)CCC(=O)Nc1ccc(NC(=O)C2CCCO2)cc1` (stereo not drawn) [4-oxo-4-(4-(tetrahydrofuran-2-carboxamido)phenylamino)butanoate (20)] are 4.93 and 5.21. On DNA gyrase subunit B [2], `O=C(O)CCC(=O)Nc1ccc(NC(=O)c2ccco2)cc1` [4-((4-(furan-2-carboxamido)phenyl)amino)-4-oxobutanoic acid (5)] showed a pIC50 of 5.51.

On to `O=C(O)CCC(=O)Nc1ccc(NC(=O)c2ccc([N+](=O)[O-])s2)cc1` [4-((4-(5-nitrothiophene-2-carboxamido)phenyl)amino)-4-oxobutanoic acid (10)], for which the figures for the negative-log IC50 (pIC50) against DNA gyrase subunit B [1] and against DNA gyrase subunit B [2] were 4.90 and 5.21, respectively.

Turning to `O=C(O)CCC(=O)Nc1ccc(NC(=O)c2ccc([N+](=O)[O-])o2)cc1` [4-(4-(5-nitrofuran-2-carboxamido)phenylamino)-4-oxobutanoate (15)], the figures for the pIC50 on DNA gyrase subunit B [1] and at DNA gyrase subunit B [2] were 4.54 and 4.59, respectively.

Broadly, the pIC50 is −log10 of the IC50, conventionally taken in molar units.
